Measurements published in US8686178B2, “Derivative of 18β-glycyrrhetinic acid apt to suppress cancer cells” (Kaohsiung Medical University, priority 2011, dated 2014).

Tests used:
NTUB1 = experiment: Trial (B): MTT cytotoxicity assay, 72 hours; format: cell-based, human; conditions: 0-50 μM
Text: (§1) For the sake of proving therapeutic effects of the derivatives of 18β-glycyrrhetinic acid of the present invention, including 10, 11, 13-17 and 21-25, in treating of cancer, human bladder cancer cell line NTUB1, human prostate cancer cell line PC3 cataloged as CRL-1435 (reference to J. Formosan Med. Assoc. 1992; 91:608-13), and immortalized normal human urothelial cells SV-HUC1 cataloged as CRL-9520 are purchased from American Type Culture Collection (ATCC; Rockville, USA) and maintained in a culturing medium respectively till at a preferable density to carry out a serial of trials (comprising trial A to G) for evaluating cytotoxicities of the derivatives of 18β-glycyrrhetinic acid against cancer cells, and mechanisms thereof. […]
(§2) In trial (B), the cell lines of NTUB1, PC3, and SV-HUC1 are prepared in 96-well plates and co-incubated with the compounds 21, 23 or 25 in various concentrations of 0, 0.3, 1, 3, 5, 10, 30 and 50 μM, to analyze cytotoxic effects against either cancer cell or normal cells via a modified 3-[4,5-dimethylthiazol-2-yl]-2,5-diphenyltetrazolium bromide (MTT, Sigma Chemical Co.) assay. […] At co-incubation, 50 μL of MTT (2 mg/mL in PB) is added to each well to react for 3 hours, followed by centrifugating the 96-well plates at 1000 g for 10 min to remove supernatant, adding 150 μL DMSO in each well of the 96-well plates, and determining viability rates of the NTUB1, PC3, and SV-HUC1 cells separately by an absorbance spectrometry at 540 nm with a MRX (DYNEXCO) microplate reader.

[1] = system: immortalized normal human urothelial cells SV-HUC1; experiment: Trial (B): MTT assay on normal cells, 72 hours; format: cell-based; conditions: 0-50 μM
Text: as §1, §2

[2] = system: human prostate cancer cell line PC3; experiment: Trial (B): MTT cytotoxicity assay, 72 hours; format: cell-based; conditions: 0-50 μM
Text: as §1, §2

[3] = system: human bladder cancer cell line NTUB1; experiment: Trial (A): cytotoxic effect, IC50 by median-effect analysis; format: cell-based; conditions: NTUB1 cells; for cytotoxic effect against cancer cell: with reference to TABLE 2; for IC50: mean ± SD
Text: For the sake of proving therapeutic effects of the derivatives of 18β-glycyrrhetinic acid of the present invention, including 10, 11, 13-17 and 21-25, in treating of cancer, human bladder cancer cell line NTUB1, human prostate cancer cell line PC3 cataloged as CRL-1435 (reference to J. Formosan Med. Assoc. 1992; 91:608-13), and immortalized normal human urothelial cells SV-HUC1 cataloged as CRL-9520 are purchased from American Type Culture Collection (ATCC; Rockville, USA) and maintained in a culturing medium respectively till at a preferable density to carry out a serial of trials (comprising trial A to G) for evaluating cytotoxicities of the derivatives of 18β-glycyrrhetinic acid against cancer cells, and mechanisms thereof.
In the present invention, the NTUB1 and the PC3 is but not limit to be maintained in RPMI 1640 medium supplemented 10% fetal bovine serum (FBS), 100 unit/mL penicillin-G, 100 μg/mL streptomycin, and 2 mM L-glutamine, yet the SV-HUC1 is maintained in F12 medium supplemented with 10% fetal bovine serum (FBS), 100 unit/mL penicillin-G, 100 μg/mL streptomycin, and 2 mM L-glutamine, culturing at 37° C. in a humidified atmosphere containing 5% CO2 till at a density of 70% per well, followed by repeatedly suspending cells in each well with an ethylene diamine tetra-acetic acid buffer (EDTA buffer; Merck) and counting cell numbers.
In the present invention, the IC50 values of each group are presented as mean±standard deviation (SD).

p-p53 (Ser15) = experiment: Trial (G): expression of p53 / p-p53 by Western blot; format: cell-based, human; conditions: NAC with 50 μM 25, 24 hours, NTUB1
Protocol: In trial (G), expression of p53 is monitored via Western blot analysis in accordance with a journal article published by Son et al., at 2010 in Toxicol. Appl. Pharmacol., in which overproduction ROS induced p53 suppression is observed.
Referring to TABLE 7, the NTUB1 cells at a density of 8×10^5 cells/ml are prepared and assigned into 9 groups, including G1-1 to G1-5 and G2-1 to G2-4, to incubate in various medium for 24 hours, followed by harvesting in trypsinization, resuspending in PBS till at a suitable density and collecting the NTUB1 cells of each group respectively.
Next, the NTUB1 cells of each group are further diluted with equal volume of 2× sample buffer, boiled for 10 minutes twice to denature protein therein, and analyzed by SDS-PAGE. After that, proteins on SDS-PAGE datum are transferred to nitrocellulose membranes (Millipore, Billerica, Mass., USA) using a semi-dry blotter, followed by blocking with 5% (w/v) skimmed milk in TBST buffer (100 mM Tris-HCl (pH 7.5), 150 mM NaCl and 0.1% Tween-20), incubating with specific antibodies [including antibodies specific for b-acctin (NB600-501), p-p53 (Ser15) (9284) and p53 (DO1)]. at 4° C. overnight, washing with TBST buffer again and incubated with secondary antibody at room temperature. Finally, western data of each group are visualized on Fuji SuperRX film. […]

NTUB1 cells [4] = experiment: Trial (E): cell cycle progression by flow cytometry (propidium iodide); format: cell-based, human; parameters: Sub-G1 / G1: unit not given here; conditions: 24 hours, NTUB1
Protocol: In order to determine a relationship between the derivatives of 18β-glycyrrhetinic acid of the present invention and cell cycle arrest, trial (E) is carried out by analyzing cell cycle progression by flow cytometry. […] After that, cell cycle progression of each group is determined respectively by incubating with 50 μg/mL propidium iodide (Sigma, Co) and 50 μg/mL RNase A (Sigma, Co) in PBS at room temperature for 30 min, and analyzing by FACScan flow cytometer and Cell Quest sofeware.

NTUB1 cells [5] = experiment: Trial (D): production of reactive oxygen species by flow cytometry (DCF); format: cell-based, human; conditions: 24 hours
Protocol: In trial (D), production of reactive oxygen species (ROS) is analyzed by flow cytometry, since the levels of ROS play an important role in apoptosis.
Referring to TABLE 4, the NTUB1 cells at a density of 8×10^5 cells/ml are prepared and assigned into 5 groups, including D1 to D5, to incubate in various medium for 24 hours. Next, 10 μM of 2,7-dichlorodihydrofluorescein diacetate (H2DCFHDA; Molecular Probes, Eugene, Oreg.) is added to the NTUB1 cells of each group 30 minutes prior than harvest, followed by collecting the NTUB1 cells of each group respectively and washing with PBS buffer. With such arrangement, the 2,7-dichlorodihydrofluorescein diacetate will penetrate into cells, interact with esterase, and degrade to 2,7-dichlorofluorescein (DCF) having green fluorescein, which can be determined by flow cytometer. In trial (D), green fluorescence of intracellular DCF in each group are analyzed immediately by FACScan flow cytometer (Becton Dickinson) at a wavelength of 525 nm.

C=C(C)[C@@H]1CC[C@]2(C)[C@H](C(=O)C=C3[C@@H]4C[C@@](C)(C(=O)NC(C)C)CC[C@]4(C)CC[C@]32C)[C@@]1(C)CCC(=O)OCC [Compound 21, 30-isopropyl carbamoyl-11-oxo-18β-3,4-seco-olean-4(23),12-dien 3-ethyl ester]
cytotoxic effect (survival ratio, FIGS. 4-6) (NTUB1): cytotoxic effects against to the cancer cells in a dose-dependent manner, particularly in against to NTUB1 cell | effect on growth of normal cells (survival ratio, FIGS. 4-6) [1]: enhance the growth of SV-HUC1 cells | cytotoxic effect (survival ratio, FIGS. 4-6) [2]: cytotoxic effects against to the cancer cells in a dose-dependent manner | cytotoxic effect against cancer cell [3]: significantly suppress the growth of cancer cells with a lower concentrate | IC50 [3]: 19.4 ± 19.2 µM

C=C(C)[C@@H]1CC[C@]2(C)[C@H](C(=O)C=C3[C@@H]4C[C@@](C)(C(=O)NC(C)C)CC[C@]4(C)CC[C@]32C)[C@@]1(C)CCC(=O)NCC [Compound 23]
cytotoxic effect (survival ratio, FIGS. 4-6) (NTUB1): cytotoxic effects against to the cancer cells in a dose-dependent manner, particularly in against to NTUB1 cell | effect on growth of normal cells (survival ratio, FIGS. 4-6) [1]: enhance the growth of SV-HUC1 cells | cytotoxic effect (survival ratio, FIGS. 4-6) [2]: cytotoxic effects against to the cancer cells in a dose-dependent manner | cytotoxic effect against cancer cell [3]: significantly suppress the growth of cancer cells with a lower concentrate | IC50 [3]: 12.8 ± 2.1 µM

CC(=O)N[C@@H](CS)C(=O)O [NAC, reference compound]
effect on p53 phosphorylation stimulated by 25 (Western blot, FIG. 10) (p-p53 (Ser15)): prevents p53 phosphorylation that stimulated by 25 | G1 (NTUB1 cells [4]; 1 mM): 44.41 | S (NTUB1 cells [4]; 1 mM): 29.18 | Sub-G1 (NTUB1 cells [4]; 1 mM): 2.66 | G2/M (NTUB1 cells [4]): 20.18 | ROS (%) (NTUB1 cells [5]; 1 mM): 26.1%

N.N.[Cl][Pt][Cl] [cisplatin, cis-diamminedichloroplatinum II, reference compound]
G1 (NTUB1 cells [4]; 20 μM): 60.91 | G2/M (NTUB1 cells [4]; 20 μM): 6.65 | S (NTUB1 cells [4]; 20 μM): 22.09 | Sub-G1 (NTUB1 cells [4]; 20 μM): 10.35 | ROS (%) (NTUB1 cells [5]; 20 μM): 63.1% | IC50 [3]: 3.27 ± 0.1 µM
